From PubChem BioAssay (NCI) come the findings set out here.

What all share (assay): DTP human tumour cell line panel, 48 h
In assay [1] the test system is A549 NSCLC.
Assay [2] has as its system HL-60(TB) leukemia.
In assay [3] the test system is HT29 colon.
Assay [4] concerns UO-31 renal.
Assay [5] deals with TK-10 renal.
Assay [6] has as its system SK-OV-3 ovarian.
Assay [7] relates to BT-549 breast.
Assay [8] concerns SR leukemia.
The subject of assay [9] is OVCAR-5 ovarian.
The subject of assay [10] is MOLT-4 leukemia.

Usually GI50 stands for the concentration giving 50% growth inhibition. Broadly, the TGI is the concentration giving total growth inhibition. The low end stands for greater sensitivity of the cells, the high end for lower sensitivity of the cells.

Values joined by “and” are separate entries in the source; they are usually repeats but may differ in a detail not shown here. Equal entries are not always repeated.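 In this assay, cells in 96-well plates receive the compound at five concentrations for 48 hours. Endpoints are linearly interpolated between the surrounding concentrations. GI50 is the concentration that inhibits growth by half. At the TGI there is no net growth.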

Consider `Cc1ccc(S(=O)(=O)NCCNC2=CC(=O)c3nc4ccccc4c4ccnc2c34)cc1`, for which the GI50 in assay [1] was 15.2 µM; in [2], 28.1 µM; in assay [3] it was 32.5 µM; in assay [4], 24.3 µM; in assay [5], 20.2 µM; in [6] it was 33.1 µM. In addition, the GI50 in assay [7] is 19.2 µM; in [8] it was 4.77 µM; in assay [9], 25 µM. Also, the total growth inhibition concentration (TGI) in assay [1] is 44.5 µM; in assay [2] it was > 100 µM; in assay [3] it was 79.1 µM; in [4], > 100 µM; in assay [5] it was 40.1 µM; in [6], > 100 µM. Besides, the TGI in [7] was 46.1 µM; in [8] it was > 100 µM; in assay [9] it was 65.4 µM.
Consider `CC1CC2CC(=O)CC3(C1)C2CCCN3CCCO` (centres undefined), for which the TGI in [1], in assay [2], in [3], in assay [4], in assay [5] and in [6] was > 100 µM throughout. Also, the concentration for total growth inhibition (TGI) in [10], in assay [8] and in [9] was > 100 µM in each case.
`CC1(C)C(=O)C(C)(C)C1=NN`: the concentration for total growth inhibition (TGI) in [1], in assay [2], in [3], in [4], in assay [5] and in [6] was > 100 µM in each case. Moreover, the total growth inhibition concentration (TGI) in [10], in [8] and in [9] was > 100 µM in each case.
On to `O=C(O)[C@@H]1[C@H](C(=O)O)[C@H](C(=O)O)C[C@@H]1C(=O)O`, for which the total growth inhibition concentration (TGI) in assay [1], in [3], in assay [4], in [5], in assay [6] and in [10] was > 100 µM each time. The total growth inhibition concentration (TGI) in assay [7], in assay [8] and in assay [9] was > 100 µM in each case.
In the case of `COc1cc(/C=C2\CCC/C(=C\c3cc(OC)c(O)c(OC)c3)C2=O)cc(OC)c1O`, the GI50 in [1] was 3.14 µM; in assay [3] it was 3.8 µM; in assay [4] it was 2.05 µM; in [10] it was 2.97 µM; in assay [8] it was 1.73 µM; in assay [9], 5.22 µM. Besides, the TGI was 38 µM and > 100 µM in assay [3]; 3.46 µM and 4.97 µM in assay [4]; > 100 µM in assay [5]; > 100 µM in assay [6]; 75 µM and 36.5 µM in assay [10]; 5.92 µM in assay [7]. Moreover, the TGI in [8] is 75 µM and 28.8 µM; in assay [9], 7.4 µM and 63.3 µM.
As for `C/C(=N\O)c1cccc(Nc2cc(-n3ccnn3)c3ccccc3n2)c1`, the GI50 was 16.9 µM in assay [1]; 2.17 µM in assay [3]; 16.2 µM in assay [4]; 16.9 µM in assay [5]; 30.6 µM in [6]; 11.6 µM in assay [10]. Also, the results for the GI50 in assay [7] and in [9] were 18.9 µM and 24.4 µM, respectively. For the same molecule, the TGI in [1] was 43.2 µM; in assay [3], 82.5 µM; in assay [4] it was 37.5 µM; in assay [5], 46.3 µM; in [6], > 100 µM; in assay [10], 28.2 µM. The total growth inhibition concentration (TGI) in [7] is 53.9 µM; in [9] it was > 100 µM.
For `CC1CCP(=O)(c2ccccc2)c2ccccc21` (centres undefined), the TGI in assay [1] was > 100 µM; in assay [2] it was 41.1 µM; in assay [3], > 100 µM; in assay [4] it was > 100 µM; in assay [5], > 100 µM; in [6] it was > 100 µM. Also, the TGI in assay [10] was 75.4 µM; in assay [8], 96.9 µM; in assay [9], > 100 µM.
`COc1ccc2c(c1)/C(=C\c1cccnc1)C(=O)N2`: the GI50 in assay [1] is 18.2 µM; in assay [2], 24.7 µM; in assay [4], 25.9 µM; in [5], 18.5 µM; in assay [6], 20.3 µM; in assay [10] it was 23 µM. Moreover, the figures for the GI50 in assay [7] and in [9] were 13.3 µM and 24.3 µM, respectively. For the same molecule, the TGI in assay [1] was 56.7 µM; in [2] it was > 100 µM; in assay [4], > 100 µM; in assay [5], 44.6 µM; in assay [6] it was 46.5 µM; in assay [10], > 100 µM. The values for the concentration for total growth inhibition (TGI) in assay [7] and in [9] were 32.3 µM and 78.5 µM, respectively.
`OCCCOC(c1ccccc1)(c1ccccc1)c1ccccc1`: the total growth inhibition concentration (TGI) in assay [1] was > 100 µM; in [2], > 100 µM; in [3], 92.8 µM; in assay [4], > 100 µM; in assay [5], > 100 µM; in assay [6], > 100 µM. For the same molecule, the total growth inhibition concentration (TGI) in assay [10], in [8] and in [9] was > 100 µM throughout.
For `CCCCC1CC(c2cccc([N+](=O)[O-])c2)=NO1` (centres undefined), the TGI in [1], in [2], in [3], in [4], in assay [5] and in assay [6] was > 100 µM in each case. The TGI in [10], in [8] and in [9] was > 100 µM in each case.
Take `CC(C)C1(O)C(c2ccccc2)=C(c2ccccc2)C(c2ccccc2)=C1c1ccccc1`: the TGI in assay [1] was 54.6 µM; in assay [2], 7.07 µM; in assay [3], 16 µM; in [4] it was 23.7 µM; in assay [5], 56.3 µM; in assay [6], > 100 µM. The TGI in assay [10] was 9.27 µM; in assay [8] it was 36 µM; in [9] it was > 100 µM.
Regarding `FC(F)(F)c1cc(-c2nnc3n2N=C(N2CCCC2)CS3)cc(C(F)(F)F)c1`, the GI50 in assay [3] was > 50 µM; in [4], > 50 µM; in assay [6], 14.3 µM; in assay [7], > 50 µM; in assay [8], 48.8 µM; in [9], > 50 µM. The TGI in assay [3], in assay [4], in assay [6], in assay [7], in assay [8] and in [9] was > 50 µM in each case.
